Data published in the SangsterLogP compilation.

Assay: method code SF-AS, from DOI: 10.1016/j.ejmech.2011.01.053, PMID: 21334792
Conditions: pH 7.4

logD | Compound
0.7 | CC(C)(C)OC(=O)NCC(=O)ON=C1c2ccccc2-c2c1c(N1CCN(c3ccccn3)CC1)nc1cccc(Br)c21
2.06 | CCCCCC(=O)ON=C1c2ccccc2-c2c1c(N1CCN(c3ccc[nH]3)CC1)nc1ccc(Br)cc21
1.47 | O=C(CCCCBr)ON=C1c2ccccc2-c2c1c(N1CCN(c3ccccn3)CC1)nc1ccc(Br)cc21
1.73 | CC1(O)c2ccccc2-c2c1c(-n1ccnc1)nc1ccc(Br)cc21 (stereo not drawn)
0.23 | ON=C1c2ccccc2-c2c1c(C1C=CN=C1)nc1ccc(Br)cc21 (stereo not drawn)
1.18 | CC(=O)NCC(=O)ON=C1c2ccccc2-c2c1c(N1CCN(c3ccccn3)CC1)nc1ccc(Br)cc21
1.43 | O=C(C=Cc1ccco1)ON=C1C2=C(c3ccccc31)c1c(Br)cccc1NC2N1CCN(c2ccccn2)CC1 (stereo not drawn)
1.83 | CC1(OC(=O)CC(F)(F)F)c2ccccc2-c2c1c(-n1ccnc1)nc1ccc(Br)cc21 (stereo not drawn)
1.17 | CCCC(=O)O/N=C1\c2ccccc2-c2c1c(-n1ccnc1)nc1ccc(Br)cc21
1.5 | CC(C)(C)C(=O)NC(C(=O)ON=C1c2ccccc2-c2c1c(N1CCN(c3ccccn3)CC1)nc1ccc(Br)cc21)C(C)(C)C (stereo not drawn)
1.51 | CCCCCCC(=O)ON=C1c2ccccc2-c2c1c(C1C=CN=C1)nc1ccc(Br)cc21 (stereo not drawn)
1.14 | CC(C)(C)OC(=O)NC(Cc1cccc(F)c1)ON=C1c2ccccc2-c2c1c(N1CCN(c3ccccn3)CC1)nc1ccc(Br)cc21 (stereo not drawn)
2.65 | CCC(=O)ON=C1c2ccccc2-c2c1c(N1CCN(c3ccccn3)CC1)nc1ccc(Br)cc21
1.64 | CCCCC(=O)ON=C1c2ccccc2-c2c1c(C1C=CN=C1)nc1ccc(Br)cc21 (stereo not drawn)
1.11 | CC(=O)ON=C1c2ccccc2-c2c1c(C1C=CN=C1)nc1ccc(Br)cc21 (stereo not drawn)
2.11 | CCCCCC(=O)ON=C1c2ccccc2-c2c1c(C1C=CN=C1)nc1ccc(Br)cc21 (stereo not drawn)
1.28 | CC(C)(C)OC(=O)N1CCCC1C(=O)O/N=C1\c2ccccc2-c2c1c(-n1ccnc1)nc1ccc(Br)cc21 (stereo not drawn)

Compound | logD
CN(C)C(=O)ON=C1c2ccccc2-c2c1c(N1CCN(c3ccccn3)CC1)nc1ccc(Br)cc21 | 2.34
